One compound from the NIST ThermoML archive (doi:10.1021/acs.jced.6b00230) can be followed below.

± gives the expanded uncertainty stated by the source.

The conditions of data set [1]: Crystal.
Data set [2] in a line: Molar enthalpy of transition or fusion. To be noted: Crystal; DSC.

As usually defined, the mass density is mass per unit of volume. `O=C1NC(=O)c2cc([N+](=O)[O-])ccc21` [4-nitrophthalimide]: in data set [1] (298.15 K, 101.33 kPa, Buoyancy - hydrostatic balance), the mass density was found to be 1594.7 ± 2.1 kg/m3. Further, in data set [1] (DTA), the Normal melting temperature was determined as 201.56 ± 1.1 °C. Further, the “Molar enthalpy of transition or fusion” value in data set [2] was found to be 8.27 ± 0.263 kcal/mol.
